Measurements taken from patent US5331089A, “Peptides useful as tachykinin agonists” (Merck Sharpe & Dohme, Ltd., priority 1988, dated 1994).
Where a SMILES comes first, the peptide text is derived from it.

Target: T1, NK-2 tachykinin receptor (Rattus norvegicus, UniProt P16610)
T1 construct: The vas deferens is dissected free from the surrounding connective tissue and suspended in a 3 ml organ bath; from tissue; host or cells: isolated rat vas deferens (male Wistar rat), longitudinal muscle
T1 sequence (P16610 1-390): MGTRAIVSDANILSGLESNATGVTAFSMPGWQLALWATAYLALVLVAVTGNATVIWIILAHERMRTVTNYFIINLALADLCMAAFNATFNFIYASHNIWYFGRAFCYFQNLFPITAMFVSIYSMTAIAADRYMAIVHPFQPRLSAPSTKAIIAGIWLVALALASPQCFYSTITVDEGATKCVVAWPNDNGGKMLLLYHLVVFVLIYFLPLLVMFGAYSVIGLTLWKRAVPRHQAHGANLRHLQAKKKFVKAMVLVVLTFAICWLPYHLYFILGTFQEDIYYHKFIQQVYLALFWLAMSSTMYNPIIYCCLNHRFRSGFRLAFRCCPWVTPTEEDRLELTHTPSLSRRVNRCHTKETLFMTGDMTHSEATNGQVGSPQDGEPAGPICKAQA
Experiment: Isolated rat vas deferens preparation: antagonism of eledoisin-induced increase in field-stimulated twitch
Assay type: cell-based
Settings: isolated Wistar rat vas deferens, eledoisin as standard agonist, pA2 (-logKb) estimated from dose ratio; for Kb: read-out: pA2 (against eledoisin) (converted)
Procedure: The activity of the compounds of the accompanying Examples as tachykinin receptor antagonists was evaluated using the following method:
The tachykinin receptor present in the longitudinal muscle of the rat vas deferens has been characterised, using natural and synthetic tachykinins, as `NK-2`. This preparation is therefore used to determine the selectivity and potency of the peptides for this receptor sub-type.
Male Wistar rats weighing 200-300 g are killed by decapitation. The vas deferens is dissected free from the surrounding connective tissue and suspended in a 3 ml organ bath under an initial resting tension of 1 g. The tissue is maintained at 37° C. in modified KREBS HENSALEIT solution (NaCl 118.4, KCl 4.7, CaCl2 2.5, KH2 PO4 1.18, MgSO4.7H2 O 1.19, NaHCO3 25.0, D-glucose 11.1 mM), which is continuously gassed with a mixture of 95% O2 and 5% CO2. Field stimulated responses are elicited by trains of pulses delivered for 1 second every 20 seconds (7 Hz, 70-80 V, individual pulse duration 0.5 ms). […] Contractions remain reasonably constant for 3-4 hours with no spontaneous changes in resting tension. A dose-cycle of 10-15 minutes is used, drug contact time being about 3-5 minutes.
In all experiments eledoisin is used as a standard agonist. Eledoisin, in the dose range 10^-8 -3×10^-6 M, produces a dose-related increase in twitch height and, to a lesser extent, basal tension. A second dose-response curve is then constructed to the peptide under investigation.
To determine the potency of each peptide as an NK-2 antagonist, the test compound is added to the bathing medium, at an appropriate concentration, 20-30 minutes before the first dose of the second eledoisin dose-response curve. Thereafter addition of the test compound 5-10 minutes before the eledoisin dose is sufficient. The percentage increase in twitch produced by eledoisin in the presence and absence of the antagonist is expressed as a percentage of the maximum response of each individual dose-response curve. Thus all dose-response curves have the same maximum. From the dose ratio an estimate of the pA2 (-logKb) for each test compound can be determined:
pA2 =log[(DR-1)/(antagonist conc.)]

Compound	pA2 (against eledoisin)	Kb [nM]
Cyclo(Gln-Npa-Phe-(R)Gly[ANC-2]Leu-Met) [Example 2]	5.6	
CSCC[C@@H]1NC(=O)[C@H](CC(C)C)NC(=O)CNC(=O)[C@H](Cc2ccccc2)NC(=O)[C@H](Cc2c[nH]c3ccccc23)NC(=O)[C@H](CCC(N)=O)NC1=O [Example 3, Cyclo (Gln-Trp-Phe-Gly-Leu-Met)] (cyclo(FGLMQW))		10
Ac-LMQWFG-NH2 [Example 6, Acetyl-Leu-Met-Gln-Trp-Phe-Gly-NH2]		158
CSCC[C@@H]1NC(=O)[C@H](CC(C)C)N2CC[C@@H](NC(=O)[C@H](Cc3ccccc3)N(C)C(=O)[C@@H](Cc3c[nH]c4ccccc34)NC(=O)[C@H](CCC(N)=O)NC(=O)[C@H](CCSC)NC(=O)[C@H](CC(C)C)N3CC[C@@H](NC(=O)[C@H](Cc4ccccc4)N(C)C(=O)[C@@H](Cc4c[nH]c5ccccc45)NC(=O)[C@H](CCC(N)=O)NC1=O)C3=O)C2=O [Example 5b, cyclo (Gln-D-Trp-(N-Me)Phe-(R)Gly[ANC-2]Leu-Met2]		7940
